Each structure is given as a SMILES string.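 Tested at 5 concentrations; 48 h exposure; 96-well plates; endpoints linearly interpolated, else capped at highest concentration. Abbreviation: GI50, concentration required for 50% inhibition of growth. TGI: total growth inhibition.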

Test in all cases: DTP human tumour cell line panel, 48 h
The test system of assay [1] is 786-0 renal.
The subject of assay [2] is COLO 205 colon.
For assay [3], the system named is HCT-116 colon.
The test system of assay [4] is LOX IMVI melanoma.
The test system of assay [5] is MALME-3M melanoma.
The test system of assay [6] is OVCAR-3 ovarian.
Assay [7] concerns OVCAR-4 ovarian.
In assay [8] the test system is SF-295 CNS.
Assay [9] concerns U251 CNS.
The test system of assay [10] is NCI-H522 lung.

For `CCc1ccccc1NC(=O)C(=O)C(C#N)c1ccccc1Cl` (stereo not given), the TGI in assay [1] was greater than 100 µM; in assay [2] it was greater than 100 µM; in [3], greater than 100 µM; in assay [4] it was 10.9 µM; in assay [5] it was greater than 100 µM; in assay [6], greater than 100 µM. Further, the TGI in assay [7], in assay [8] and in assay [9] was greater than 100 µM throughout.
With `CN(C)C1CCN(Cc2ccc(NC(=O)c3cncc(C#Cc4cnc(N)c5ncccc45)c3)cc2C(F)(F)F)CC1`, the GI50 in assay [1] is 1.01 µM; in assay [3], 8.28 µM; in [4], 8.01 µM; in [5] it was 0.828 µM; in assay [10], 9.86 µM; in [6] it was 9.3 µM. The GI50 in assay [7] is 1.9 µM; in assay [8], 8.88 µM; in assay [9], 1.03 µM. Moreover, the TGI came to 1.93 µM in [1]; 18 µM in assay [3]; 20 µM in [4]; 1.65 µM in assay [5]; 26.5 µM in [10]; 17.6 µM in assay [6]. The concentration for total growth inhibition (TGI) in assay [7] is 9.24 µM; in assay [8] it was 17.3 µM; in assay [9], 2.22 µM.
Consider `COc1ccc(-c2coc3cc(O)ccc3c2=O)cc1`, for which the TGI in assay [1], in assay [2], in assay [3], in assay [5], in assay [10] and in assay [6] was greater than 100 µM throughout. Moreover, the concentration for total growth inhibition (TGI) in [8] and in assay [9] was greater than 100 µM throughout.
On to `O=C1/C(=C/c2ccc([N+](=O)[O-])s2)Oc2cc(Cl)ccc21`, for which the GI50 in [1] is 2.9 µM; in assay [10], 0.25 µM; in assay [6], 0.325 µM; in assay [8], 4.46 µM; in [9], 1.02 µM. In addition, the TGI in assay [1] was 7.35 µM; in assay [10], 0.713 µM; in [6], 0.898 µM; in assay [8] it was greater than 100 µM; in assay [9], 2.21 µM.
Regarding `c1ccc2c(c1)SC(=C1Sc3ccccc3S1)S2`, the TGI in [1], in assay [2], in [4], in assay [5], in assay [6] and in [7] was greater than 100 µM in each case. The TGI in [8] and in [9] was greater than 100 µM in each case.
As to `OCC1OC2c3ccccc3COC2C1OCc1ccccc1` (stereo not given), the TGI in assay [1], in assay [2], in assay [3], in [5], in assay [10] and in assay [6] was greater than 100 µM throughout. Moreover, the concentration for total growth inhibition (TGI) in [7], in assay [8] and in assay [9] was greater than 100 µM each time.
As to `N#CC1C[C@@H]2CC3(CCC2CN1C(=O)c1ccccc1)OCCO3` (stereo not given in full), the TGI in assay [1], in [2], in assay [3], in assay [4], in [5] and in [6] was greater than 100 µM each time. For the same compound, the TGI in [7], in assay [8] and in assay [9] was greater than 100 µM in each case.
As to `COC(=O)C12CCC(C)(C)CC1C1=CCC3C4(C)CC(O)C(O)C(C)(C(=O)OC)C4CCC3(C)C1(CO)CC2` (stereo not given), the TGI in assay [1] amounted to 23.3 µM; in [2], 29.1 µM; in assay [3], 27.4 µM; in assay [4], 28.1 µM; in assay [10], 35.2 µM; in [6], 31.5 µM. The TGI stood at 27.8 µM in [7], 28.8 µM in assay [8] and 39.8 µM in assay [9].
As for `COC(=O)Oc1nn(C(=O)OC)c(=O)c2ccccc12`, the TGI in [1], in assay [2], in [3], in assay [4], in assay [5] and in [10] was greater than 100 µM in each case. Moreover, the TGI in [6], in assay [8] and in [9] was greater than 100 µM in each case.
As for `[O-]/N=[N+](/[O-])C1CCCCC1=[N+]1CCOCC1` (stereo not given), the TGI in assay [1], in assay [2], in assay [3], in assay [5], in [10] and in [6] was greater than 100 µM each time. Moreover, the TGI in assay [7], in [8] and in assay [9] was greater than 100 µM each time.
As for `COc1cccc(C=O)c1C(=O)c1cc(O)ccc1O`, the TGI in assay [1] was greater than 100 µM; in assay [2], 34.1 µM; in assay [3], 39.2 µM; in assay [4] it was greater than 74 µM; in assay [5], 37.5 µM; in assay [6], 45.5 µM. In addition, the values for the TGI in assay [7], in assay [8] and in [9] were 35.7 µM, greater than 100 µM and greater than 100 µM, respectively.
Regarding `O=Cc1cccc2ccc3ccccc3c12`, the TGI is 53.5 µM in [1]; 37.5 µM in assay [2]; 39.4 µM in [3]; 45.9 µM in assay [4]; 49.7 µM in [5]; 52 µM in assay [10]. The TGI in assay [6] came out at 40.4 µM; in [8], 50.2 µM; in assay [9], 58.7 µM.
As to `O=[N+]([O-])c1cc(-c2nc(=S)[nH][nH]2)ccc1O`, the concentration for total growth inhibition (TGI) is greater than 100 µM in [1]; 35.9 µM in assay [2]; greater than 100 µM in [3]; greater than 100 µM in [4]; greater than 100 µM in [5]; greater than 100 µM in assay [7]. The TGI in assay [8] and in assay [9] was greater than 100 µM throughout.
With `COC(=O)c1cc(NC(=O)c2cc(NC(=O)c3cc([N+](=O)[O-])n(C)c3)cn2C)cn1C`, the GI50 in [1] is greater than 100 µM; in assay [2], 45.9 µM; in assay [3] it was 31.8 µM; in assay [4] it was 10.7 µM; in [10], 58.9 µM; in [6] it was greater than 100 µM. Moreover, the GI50 in [8] was 32.8 µM; in assay [9] it was 32.7 µM. The TGI in assay [1] is greater than 100 µM; in [2] it was greater than 100 µM; in assay [3], greater than 100 µM; in assay [4], 85.9 µM; in [10] it was greater than 100 µM; in [6], greater than 100 µM. Moreover, the TGI in assay [8] and in [9] was greater than 100 µM each time.

The TGI is the concentration at which net growth stops. Low readings indicate more potent growth arrest, high ones less potent growth arrest. Broadly, the GI50 is the concentration giving 50% growth inhibition.

For the origin of these results see PubChem BioAssay (NCI).
